Reference: patent US12522601B2, “1,3,4-oxadiazole derivative compounds as histone deacetylase 6 inhibitor, and the pharmaceutical composition comprising the same” (CHONG KUN DANG PHARMACEUTICAL CORP., priority 2020, dated 2026)

Legend:
[1] = target: T1, human recombinant HDAC1 (Homo sapiens, UniProt Q13547); test: In vitro HDAC enzyme activity inhibition assay, HDAC1 (HDAC Fluorimetric Drug Discovery Kit); type: biochemical; conditions: human recombinant HDAC1, Fluor de Lys-SIRT1 substrate 10 μM, 30° C. for 60 minutes
T1 construct: purchased Enzo Life Sciences, Inc. BML-SE456
T1 sequence (Q13547 whole entry): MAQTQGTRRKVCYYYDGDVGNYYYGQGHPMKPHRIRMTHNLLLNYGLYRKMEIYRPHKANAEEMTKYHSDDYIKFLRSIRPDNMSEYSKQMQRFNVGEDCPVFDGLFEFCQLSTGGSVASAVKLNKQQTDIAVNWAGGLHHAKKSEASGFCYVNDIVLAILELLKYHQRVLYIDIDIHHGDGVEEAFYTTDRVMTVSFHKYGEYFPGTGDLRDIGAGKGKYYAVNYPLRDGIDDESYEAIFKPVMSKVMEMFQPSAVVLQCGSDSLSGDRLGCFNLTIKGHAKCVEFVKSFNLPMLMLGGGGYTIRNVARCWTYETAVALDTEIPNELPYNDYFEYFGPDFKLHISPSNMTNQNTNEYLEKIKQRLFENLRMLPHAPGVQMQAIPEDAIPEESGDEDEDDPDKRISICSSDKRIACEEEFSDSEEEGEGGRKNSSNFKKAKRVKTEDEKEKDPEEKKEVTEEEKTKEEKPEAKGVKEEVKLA
How it was run: (§1)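 Both HDAC1 and HDAC6 (human recombinant, 0.3 μg) tested identically: 10 μM fluorogenic Fluor de Lys-SIRT1 substrate, reaction 60 min at 30° C, developer added for 30 min. IC50 calculated from Ex 360/Em 460 signal over 5-fold serial dilutions.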

[2] = target: T2, human recombinant HDAC6 (Homo sapiens, UniProt Q9UBN7); test: In vitro HDAC enzyme activity inhibition assay, HDAC6 (HDAC Fluorimetric Drug Discovery Kit); type: biochemical; conditions: for HDAC6 Selectivity (fold): HDAC6 versus HDAC1; for IC50: human recombinant HDAC6, same protocol as the HDAC1 test
T2 construct: purchased Calbiochem Inc. 382180
T2 sequence (Q9UBN7 1-1215): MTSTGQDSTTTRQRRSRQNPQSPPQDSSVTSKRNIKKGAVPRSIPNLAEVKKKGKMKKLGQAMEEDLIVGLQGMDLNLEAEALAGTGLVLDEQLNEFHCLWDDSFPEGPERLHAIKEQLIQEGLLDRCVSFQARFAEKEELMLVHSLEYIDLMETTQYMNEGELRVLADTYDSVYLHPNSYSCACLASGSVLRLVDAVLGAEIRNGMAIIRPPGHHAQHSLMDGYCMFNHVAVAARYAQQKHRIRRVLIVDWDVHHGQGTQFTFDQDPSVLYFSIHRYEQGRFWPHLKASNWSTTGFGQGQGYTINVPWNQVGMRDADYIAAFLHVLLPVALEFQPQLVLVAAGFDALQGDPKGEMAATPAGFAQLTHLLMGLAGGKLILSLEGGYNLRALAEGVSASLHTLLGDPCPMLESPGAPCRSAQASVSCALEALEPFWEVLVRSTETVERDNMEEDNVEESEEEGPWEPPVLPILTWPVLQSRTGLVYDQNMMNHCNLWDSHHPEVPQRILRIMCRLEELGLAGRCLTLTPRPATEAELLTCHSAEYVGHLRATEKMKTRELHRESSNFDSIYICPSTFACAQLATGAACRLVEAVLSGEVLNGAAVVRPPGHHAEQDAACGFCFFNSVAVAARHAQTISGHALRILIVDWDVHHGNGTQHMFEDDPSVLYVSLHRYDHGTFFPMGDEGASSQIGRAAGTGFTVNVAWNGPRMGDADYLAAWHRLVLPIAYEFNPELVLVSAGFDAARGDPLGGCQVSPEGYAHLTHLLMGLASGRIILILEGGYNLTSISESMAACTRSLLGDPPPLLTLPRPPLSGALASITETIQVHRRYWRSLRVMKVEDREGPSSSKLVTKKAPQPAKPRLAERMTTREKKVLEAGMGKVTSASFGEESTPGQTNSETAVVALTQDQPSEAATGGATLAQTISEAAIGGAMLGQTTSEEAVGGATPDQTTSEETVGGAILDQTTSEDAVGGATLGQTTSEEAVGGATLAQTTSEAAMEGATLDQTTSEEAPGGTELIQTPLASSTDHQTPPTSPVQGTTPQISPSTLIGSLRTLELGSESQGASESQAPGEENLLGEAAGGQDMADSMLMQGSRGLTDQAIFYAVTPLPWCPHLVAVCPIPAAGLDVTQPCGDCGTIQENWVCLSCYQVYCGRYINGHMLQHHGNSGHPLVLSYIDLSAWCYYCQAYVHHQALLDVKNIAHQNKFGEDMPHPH
How it was run: as §1

| SMILES | IC50 [1] [nM] | HDAC6 Selectivity (fold) [2] [fold] | IC50 [2] [nM] |
| --- | --- | --- | --- |
| CC(CO)N1CC(C(=O)N(Cc2cn3ccc(-c4nnc(C(F)F)o4)cc3n2)c2ccccc2)C1 (stereo not drawn) [Compound 4161, N-((7-(5-(difluoromethyl)-1,3,4-oxadiazol-2-yl)imidazo[1,2-a]pyridin-2-yl)methyl)-1-(1-hydroxypropan-2-yl)-N-phenylazetidine-3-carboxamide] | > 50000 | 224 | 223 |
| O=C(C1CN(C2CCC2)C1)N(Cc1cn2ccc(-c3nnc(C(F)F)o3)cc2n1)c1ccccc1 [Compound 4162, 1-cyclobutyl-N-((7-(5-(difluoromethyl)-1,3,4-oxadiazol-2-yl)imidazo[1,2-a]pyridin-2-yl)methyl)-N-phenylazetidine-3-carboxamide] | > 50000 | 140 | 358 |
| O=C(C1CN(C2COC2)C1)N(Cc1cn2ccc(-c3nnc(C(F)F)o3)cc2n1)c1ccccc1 [Compound 4163, N-((7-(5-(difluoromethyl)-1,3,4-oxadiazol-2-yl)imidazo[1,2-a]pyridin-2-yl)methyl)-1-(oxetan-3-yl)-N-phenylazetidine-3-carboxamide] | > 50000 | 122 | 410 |
| O=C(C1CN(C2CCCCC2)C1)N(Cc1cn2ccc(-c3nnc(C(F)F)o3)cc2n1)c1ccccc1 [Compound 4164, 1-cyclohexyl-N-((7-(5-(difluoromethyl)-1,3,4-oxadiazol-2-yl)imidazo[1,2-a]pyridin-2-yl)methyl)-N-phenylazetidine-3-carboxamide] | > 50000 | 147 | 340 |
| O=C(C1CN(C2CCOCC2)C1)N(Cc1cn2ccc(-c3nnc(C(F)F)o3)cc2n1)c1ccccc1 [Compound 4165, N-((7-(5-(difluoromethyl)-1,3,4-oxadiazol-2-yl)imidazo[1,2-a]pyridin-2-yl)methyl)-N-phenyl-1-(tetrahydro-2H-pyran-4-yl) azetidine-3-carboxamide] | > 50000 | 121 | 413 |
| O=C(C1CN(C2CCC(F)(F)CC2)C1)N(Cc1cn2ccc(-c3nnc(C(F)F)o3)cc2n1)c1ccccc1 [Compound 4166, 1-(4,4-difluorocyclohexyl)-N-((7-(5-(difluoromethyl)-1,3,4-oxadiazol-2-yl)imidazo[1,2-a]pyridin-2-yl)methyl)-N-phenylazetidine-3-carboxamide] | > 50000 | 197 | 254 |
| CC(=O)N1CC(C(=O)N(Cc2cn3ccc(-c4nnc(C(F)F)o4)cc3n2)c2ccccc2)C1 [Compound 4167, 1-acetyl-N-((7-(5-(difluoromethyl)-1,3,4-oxadiazol-2-yl)imidazo[1,2-a]pyridine-2-yl)methyl)-N-phenylazetidine-3-carboxamide] | > 50000 | 112 | 447 |
| CCC(=O)N1CC(C(=O)N(Cc2cn3ccc(-c4nnc(C(F)F)o4)cc3n2)c2ccccc2)C1 [Compound 4168, N-((7-(5-(difluoromethyl)-1,3,4-oxadiazol-2-yl)imidazo[1,2-a]pyridin-2-yl)methyl)-N-phenyl-1-propionylazetidine-3-carboxamide] | > 50000 | 125 | 400 |
| O=C(CO)N1CC(C(=O)N(Cc2cn3ccc(-c4nnc(C(F)F)o4)cc3n2)c2ccccc2)C1 [Compound 4169, N-((7-(5-(difluoromethyl)-1,3,4-oxadiazol-2-yl)imidazo[1,2-a]pyridin-2-yl)methyl)-1-(2-hydroxyacetyl)-N-phenylazetidine-3-carboxamide] | > 50000 | 61 | 815 |
| O=C(C1CCC1)N1CC(C(=O)N(Cc2cn3ccc(-c4nnc(C(F)F)o4)cc3n2)c2ccccc2)C1 [Compound 4170, 1-(cyclobutanecarbonyl)-N-((7-(5-(difluoromethyl)-1,3,4-oxadiazol-2-yl)imidazo[1,2-a]pyridine-2-yl)methyl)-N-phenylazetidine-3-carboxamide] | > 50000 | 144 | 347 |
